IC50 data for 25 compounds are collected here from US9365576B2, “Pyrrolopyrrolidinone compounds” (Novartis AG, priority 2012, dated 2016).

For one experiment, the target named is human MDM2 protein (amino acids 2-188) (Homo sapiens (Human), UniProt Q00987). Put plainly: TR-FRET assay, p53-MDM2 Assay 2 (modified).
Chain of human MDM2 protein (amino acids 2-188) (Q00987 2-188): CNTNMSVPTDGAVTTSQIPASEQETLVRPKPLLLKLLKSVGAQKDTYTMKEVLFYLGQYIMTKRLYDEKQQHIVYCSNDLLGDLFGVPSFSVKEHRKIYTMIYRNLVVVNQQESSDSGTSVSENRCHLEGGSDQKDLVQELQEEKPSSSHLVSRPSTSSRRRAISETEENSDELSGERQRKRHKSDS
Details: not given
It counts as binding. A digest of the protocol: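 Biotinylated human MDM2 (aa 2–188, 1.25 nM) was preincubated 15 min at room temperature with 0.625 nM Eu-streptavidin, then 10 nM Cy5-p53 peptide (aa 18–26) added for 15 min. TR-FRET ratio 665/620 nm (excitation 340 nm) was read; IC50 came from curve fitting.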
On the technique in general: Time-resolved FRET reads energy transfer from a long-lived donor to a nearby acceptor.
One may read the IC50 as the midpoint of a concentration-inhibition curve. In the case of `COc1ncccc1-c1cc2c(n1C(C)C)C(c1ccc(Cl)cc1)N(c1cc(Cl)ccc1C)C2=O` (stereo not shown) [Example 12, 5-(5-Chloro-2-methyl-phenyl)-6-(4-chloro-phenyl)-1-isopropyl-2-(2-methoxy-pyridin-3-yl)-5,6-dihydro-1H-pyrrolo[3,4-b]pyrrol-4-one], the IC50 was determined as 0.49 nM.

The same experiment, now with this note: TR-FRET; 0.1 nM MDM2, 0.1 nM Europium labeled streptavidin, Tecan genios Pro reader; read-out: IC50 p53-MDM2 Assay 2.
With `COc1ncc(-c2cc3c(n2C(C)C)C(c2ccc(Cl)cn2)N(c2cc(Cl)ccc2C)C3=O)c(OC)n1` (stereo not shown) [Example 235, 5-(5-Chloro-2-methylphenyl)-6-(5-chloropyridin-2-yl)-2-(2,4-dimethoxypyrimidin-5-yl)-1-isopropyl-1-5,6-dihydropyrrolo[3,4-b]pyrrol-4(1H)-one], the IC50 amounted to 7.16 nM.

`COc1nc(N(C)C)ncc1-c1cc2c(n1C(C)C)C(c1ccc(Cl)c(F)c1)N(c1cc(Cl)c[nH]c1=O)C2=O` (stereo not shown) [Example 203, 6-(4-Chloro-3-fluoro-phenyl)-5-(5-chloro-2-oxo-1,2-dihydro-pyridin-3-yl)-2-(2-dimethylamino-4-methoxy-pyrimidin-5-yl)-1-isopropyl-5,6-dihydro-1H-pyrrolo[3,4-b]pyrrol-4-one]: the IC50 stood at 0.119 nM. Still for that read-out and setting: then `COc1nc(N(C)C)ncc1-c1cc2c(n1C(C)C)C(c1ccc(Cl)cc1)N(c1cc(Cl)ccc1C)C2=O` (stereo not shown) [Example 27, 5-(5-Chloro-2-methyl-phenyl)-6-(4-chloro-phenyl)-2-(2-dimethylamino-4-methoxy-pyrimidin-5-yl)-1-isopropyl-5,6-dihydro-1H-pyrrolo[3,4-b]pyrrol-4-one], with 0.225 nM; and `COc1ccc(C#N)cc1-c1cc2c(n1C(C)C)C(c1ccc(Cl)cc1)N(c1cc(Cl)ccc1C)C2=O` (stereo not shown) [Example 17, 3-[5-(5-Chloro-2-methyl-phenyl)-6-(4-chloro-phenyl)-1-isopropyl-4-oxo-1,4,5,6-tetrahydro-pyrrolo[3,4-b]pyrrol-2-yl]-4-methoxy-benzonitrile], with 0.281 nM. On the same count and under the same terms, then `COc1nc(N(C)C)ncc1-c1cc2c(n1C(C)C)C(c1ccc(C#N)cc1)N(c1cc(Cl)c[nH]c1=O)C2=O` (stereo not shown) [Example 127, 4-[5-(5-Chloro-2-oxo-1,2-dihydro-pyridin-3-yl)-2-(2-dimethylamino-4-methoxy-pyrimidin-5-yl)-1-isopropyl-4-oxo-1,4,5,6-tetrahydro-pyrrolo[3,4-b]pyrrol-6-yl]-benzonitrile], with 0.359 nM. As for `CNc1ncc(-c2cc3c(n2C(C)C)C(c2ccc(C#N)cc2)N(c2cc(Cl)c[nH]c2=O)C3=O)c(OC)n1` (stereo not shown) [Example 128, 4-[5-(5-Chloro-2-oxo-1,2-dihydro-pyridin-3-yl)-1-isopropyl-2-(4-methoxy-2-methylamino-pyrimidin-5-yl)-4-oxo-1,4,5,6-tetrahydro-pyrrolo[3,4-b]pyrrol-6-yl]-benzonitrile], the IC50 stood at 0.527 nM. Consider `COc1nc(N(C)C)ncc1-c1cc2c(n1C(C)C)[C@H](c1ccc(Cl)cc1)N(c1c[nH]c(=O)c(Cl)c1)C2=O` [Example 188, (S)-5-(5-Chloro-6-oxo-1,6-dihydro-pyridin-3-yl)-6-(4-chloro-phenyl)-2-(2-dimethylamino-4-methoxy-pyrimidin-5-yl)-1-isopropyl-5,6-dihydro-1H-pyrrolo[3,4-b]pyrrol-4-one], for which the IC50 is 0.079 nM.

In the case of `CNc1ncc(-c2cc3c(n2C(C)C)C(c2ccc(Cl)cc2)N(c2cc(Cl)c[nH]c2=O)C3=O)c(OC)n1` (stereo not shown) [Example 124, 5-(5-Chloro-2-oxo-1,2-dihydro-pyridin-3-yl)-6-(4-chloro-phenyl)-1-isopropyl-2-(4-methoxy-2-methylamino-pyrimidin-5-yl)-5,6-dihydro-1H-pyrrolo[3,4-b]pyrrol-4-one], the IC50 came out at 0.185 nM. Turning to `COc1ncc(-c2cc3c(n2C(C)C)C(c2ccc(C#N)cc2)N(C2CCOCC2)C3=O)c(OC)n1` (stereo not shown) [Example 157, 4-[2-(2,4-Dimethoxy-pyrimidin-5-yl)-1-isopropyl-4-oxo-5-(tetrahydro-pyran-4-yl)-1,4,5,6-tetrahydro-pyrrolo[3,4-b]pyrrol-6-yl]-benzonitrile], the IC50 is 7.9 nM. As to `COc1ncc(-c2cc3c(n2C(C)C)C(c2ccc(Cl)cc2)N([C@H]2CC[C@H](O)CC2)C3=O)c(OC)n1` (stereo partly drawn) [Example 66, 6-(4-Chloro-phenyl)-2-(2,4-dimethoxy-pyrimidin-5-yl)-5-(trans-4-hydroxy-cyclohexyl)-1-isopropyl-5,6-dihydro-1H-pyrrolo[3,4-b]pyrrol-4-one], the IC50 turned out to be 1.39 nM. Turning to `COc1nc(N(C)C)ncc1-c1cc2c(n1C(C)C)C(c1ccc(Cl)cc1)N(c1cn(C)c(=O)cc1C)C2=O` (stereo not shown) [Example 112, 6-(4-Chloro-phenyl)-2-(2-dimethylamino-4-methoxy-pyrimidin-5-yl)-5-(1,4-dimethyl-6-oxo-1,6-dihydro-pyridin-3-yl)-1-isopropyl-5,6-dihydro-1H-pyrrolo[3,4-b]pyrrol-4-one], the IC50 was 0.393 nM. Consider `COc1ccccc1-c1cc2c(n1C(C)C)C(c1ccc(Cl)cc1C)N(c1cc(Cl)ccc1C)C2=O` (stereo not shown) [Example 30, 5-(5-Chloro-2-methyl-phenyl)-6-(4-chloro-2-methyl-phenyl)-1-isopropyl-2-(2-methoxy-phenyl)-5,6-dihydro-1H-pyrrolo[3,4-b]pyrrol-4-one], for which the IC50 was determined as 0.376 nM. On to `COc1nc(N(C)C)ncc1-c1cc2c(n1C(C)C)C(c1ccc(Cl)cc1)N(c1cc(Cl)cn(C)c1=O)C2=O` (stereo not shown) [Example 73, 5-(5-Chloro-1-methyl-2-oxo-1,2-dihydro-pyridin-3-yl)-6-(4-chloro-phenyl)-2-(2-dimethylamino-4-methoxy-pyrimidin-5-yl)-1-isopropyl-5,6-dihydro-1H-pyrrolo[3,4-b]pyrrol-4-one], for which the 50% inhibitory concentration (IC50) stood at 0.161 nM. For the compound `COc1ncc(-c2cc3c(n2C(C)C)C(c2ccc(C#N)cc2)N(c2cc(Cl)ccc2C)C3=O)c(OC)n1` (stereo not shown) [Example 44, 4-[5-(5-Chloro-2-methyl-phenyl)-2-(2,4-dimethoxy-pyrimidin-5-yl)-1-isopropyl-4-oxo-1,4,5,6-tetrahydro-pyrrolo[3,4-b]pyrrol-6-yl]-benzonitrile], the IC50 was found to be 0.167 nM. With `COc1ncc(CC#N)cc1-c1cc2c(n1C(C)C)C(c1ccc(C#N)cc1)N(c1cccc(Cl)c1F)C2=O` (stereo not shown) [Example 88, 4-[5-(3-Chloro-2-fluoro-phenyl)-2-(5-cyanomethyl-2-methoxy-pyridin-3-yl)-1-isopropyl-4-oxo-1,4,5,6-tetrahydro-pyrrolo[3,4-b]pyrrol-6-yl]-benzonitrile], the IC50 stood at 1.64 nM. `COc1ccccc1-c1cc2c(n1C(C)C)C(c1ccc(Cl)cc1)N([C@H]1CC[C@H](O)CC1)C2=O` (stereo partly drawn) [Example 63, 6-(4-Chloro-phenyl)-5-(trans-4-hydroxy-cyclohexyl)-1-isopropyl-2-(2-methoxy-phenyl)-5,6-dihydro-1H-pyrrolo[3,4-b]pyrrol-4-one]: the IC50 was 8.13 nM. For the compound `COc1nc(N)ncc1-c1cc2c(n1C(C)C)C(c1ccc(Cl)cc1C)N(c1cc(Cl)c(=O)n(C)c1)C2=O` (stereo not shown) [Example 148, 2-(2-Amino-4-methoxy-pyrimidin-5-yl)-5-(5-chloro-1-methyl-6-oxo-1,6-dihydro-pyridin-3-yl)-6-(4-chloro-2-methyl-phenyl)-1-isopropyl-5,6-dihydro-1H-pyrrolo[3,4-b]pyrrol-4-one], the IC50 was 0.592 nM. Still for that read-out and setting: next, `COc1nc(N)ncc1-c1cc2c(n1C(C)C)C(c1ccc(Cl)cc1)N(c1cc(Cl)ccc1C)C2=O` (stereo not shown) [Example 25, 2-(2-Amino-4-methoxy-pyrimidin-5-yl)-5-(5-chloro-2-methyl-phenyl)-6-(4-chloro-phenyl)-1-isopropyl-5,6-dihydro-1H-pyrrolo[3,4-b]pyrrol-4-one]: 0.263 nM; `COc1ncc(-c2cc3c(n2C(C)C)C(c2ccc(Cl)cc2)N(c2cn(C)c(=O)cc2C)C3=O)c(OC)n1` (stereo not shown) [Example 111, 6-(4-Chloro-phenyl)-2-(2,4-dimethoxy-pyrimidin-5-yl)-5-(1,4-dimethyl-6-oxo-1,6-dihydro-pyridin-3-yl)-1-isopropyl-5,6-dihydro-1H-pyrrolo[3,4-b]pyrrol-4-one]: 1.84 nM. `COc1ncc(-c2cc3c(n2C(C)C)C(c2ccc(C#N)cc2)N(c2cc(Cl)c(=O)n(C)c2)C3=O)c(OC)n1` (stereo not shown) [Example 153, 4-[5-(5-Chloro-1-methyl-6-oxo-1,6-dihydro-pyridin-3-yl)-2-(2,4-dimethoxy-pyrimidin-5-yl)-1-isopropyl-4-oxo-1,4,5,6-tetrahydro-pyrrolo[3,4-b]pyrrol-6-yl]-benzonitrile]: the IC50 amounted to 0.422 nM. For `COc1ncc(-c2cc3c(n2C(C)C)[C@H](c2ccc(C#N)cc2)N(c2cc(Cl)c(=O)n(C)c2)C3=O)c(OC)n1` [Example 186, 4-[(S)-5-(5-Chloro-1-methyl-6-oxo-1,6-dihydro-pyridin-3-yl)-2-(2,4-dimethoxy-pyrimidin-5-yl)-1-isopropyl-4-oxo-1,4,5,6-tetrahydro-pyrrolo[3,4-b]pyrrol-6-yl]-benzonitrile], the IC50 came out at 0.108 nM. Still for that read-out and setting: then `COc1nc(N)ncc1-c1cc2c(n1C(C)C)C(c1ccc(C#N)cc1)N(c1cc(Cl)cn(C)c1=O)C2=O` (stereo not shown) [Example 129, 4-[2-(2-Amino-4-methoxy-pyrimidin-5-yl)-5-(5-chloro-1-methyl-2-oxo-1,2-dihydro-pyridin-3-yl)-1-isopropyl-4-oxo-1,4,5,6-tetrahydro-pyrrolo[3,4-b]pyrrol-6-yl]-benzonitrile], with 5.66 nM; and `COc1ccc(C(=O)N2CCOCC2)cc1-c1cc2c(n1C(C)C)C(c1ccc(Cl)cc1)N(c1cc(Cl)ccc1C)C2=O` (stereo not shown) [Example 28, 5-(5-Chloro-2-methyl-phenyl)-6-(4-chloro-phenyl)-1-isopropyl-2-[2-methoxy-5-(morpholine-4-carbonyl)-phenyl]-5,6-dihydro-1H-pyrrolo[3,4-b]pyrrol-4-one], with 0.106 nM; and `CNc1ncc(-c2cc3c(n2C(C)C)[C@@H](c2ccc(C#N)cc2)N(c2cc(Cl)cn(C)c2=O)C3=O)c(OC)n1` [Example 166, 4-[(R)-5-(5-Chloro-1-methyl-2-oxo-1,2-dihydro-pyridin-3-yl)-1-isopropyl-2-(4-methoxy-2-methylamino-pyrimidin-5-yl)-4-oxo-1,4,5,6-tetrahydro-pyrrolo[3,4-b]pyrrol-6-yl]-benzonitrile], with 293 nM.
